Results taken from patent US4608365A, “Treatment of neurologic functions” (priority 1984, dated 1986).

Experiments:
[1] = tested on: ALS patients; format: in vivo, human
Description: Three fasting ALS patients (men aged 37 and 60 and a person; duration of disease three-quarters of a year, one and three years, respectively) were each given an intravenous infusion of TRH in which the dose increased in seven steps from 0.5 to 19 mg/minute over sixty to eighty minutes (total dose 320, 432 and 500 mg). The two men had major spasticity from upper motor neuron involvement and weakness from lower motor neuron involvement. […] Shivering, tachypnoea and sweating increased further with rising dosage, and in the two men the infusion was stopped at 19 mg/minute, after 320 and 432 mg total, because of tachypnoea (40-45 breaths per minute) and vigorous shivering. There also was a transient increase in pulse rate (10-15 beats per minute). The men experienced sensations of coolness or warmth of the anterior lower chest and abdomen. One of the men felt "bad all over" at 19 mg/minute. […] At that time, a spinal lumbar puncture was performed to obtain cerebrospinal fluid for analysis as hereinafter described. The patient had no spasticity, only weakness from lower motor neuron involvement. […] Their infusion was stopped when the drug supply was depleted (at 500 mg total dose). The dosage was not stopped because of side-effects of TRH. […] Experience with the additional patients confirmed the observation that there is more shivering side-effect in the patients with more spasticity.
(§1) There were several control aspects of the TRH studies. […] The patients given subcutaneous TRH had treatments interspersed with saline placebo injections. […] The time course of response was not known before the study and, in fact, it was expected that the onset would be later and the duration of response longer than was actually found. Different patients responded to different doses of TRH, and the sex difference in response (woman apparently less responsive) was not expected. […] There were three observers, one unaware of the infusion status. In addition, clinical examinations of all patients of Examples III-VII were videotaped and later reviewed by several observers.

[2] = tested on: non-ALS person with chronic juvenile proximal spinal muscular atrophy; format: in vivo, human
[3] = tested on: ALS patients; format: in vivo, human; remark: listed apart in the source
Description: As shown in Examples I-V, intravenous infusion of thyrotropin-releasing hormone improves weakness and spasticity from lower motor neuron and upper motor neuron involvement in patients with amyotrophic lateral sclerosis and proximal spinal muscular atrophy. In an additional study, forty-one ALS patients were treated with 461 days of subcutaneous TRH administered 75-150 mg once daily or 75 mg twice daily. The subcutaneous doses were sometimes administered by patients or spouses. Included were all forms of ALS, and all patients were videotaped pre- and post-treatment. […] Saline injections produced no responses. The previously-noted lesser benefit and side-effects in females was less evident.
Benefit and side-effects of TRH administered subcutaneously were qualitatively and quantitatively similar to those of intravenous TRH described in Examples III and IV. […] Response times were somewhat different.
as §1
In each of the foregoing Examples, the TRH was administered in a normal saline solution containing 100 mg/ml of TRH. The pH of the solution was not adjusted. This particular carrier and strength was selected for its ready availability, the convenience in calculating dosages administered and its similarity to the placebo solution, and additional carriers may be employed as desired. Timed-release carriers would be particularly advantageous, and are within the scope of the invention.

[4] = tested on: ALS patients; assay: Transient autorefractory effect, subcutaneous TRH in ALS patients; format: in vivo, human
Text: Possible mechanisms for autorefractoriness, presumably involving the lower motor neuron soma/dendrites and/or neurons afferent thereto, include: […] In normal animals, repeated micropipetting of TRH near lower motor neurons has been shown by others to cause a similar prolonged unresponsiveness. The mechanism of autorefractoriness may be, in general, related to the excellent clinical anti-spasticity benefits of TRH, and non-excitatory TRH analogs may be employed within the spirit of the invention to enhance this type of clinical improvement.

[5] = human, in vivo
Description: In three ALS patients given 25 mg TRH intravenously during 6 minutes, concommitant TRH values were measured in the plasma and serum at 0, 6 and 12 minutes.

[6] = tested on: tissue-cultured fetal rat lower motor neurons; assay: Trophic-like effect on tissue-cultured fetal rat lower motor neurons (cholineactyltransferase); format: cell-based; conditions: chronic
Text: "Transmitter-like," as used herein, includes not only direct excitatory (or facilitatory) and inhibitory actions on the lower motor neurons, but also any action on lower motor neurons or afferents thereto that results indirectly in such an effect. That excitatory TRH action, increasing patients' strength, is either directly excitatory or facilitatory and perhaps analogous to the lower motor neuron facilitation of glutamate excitation noted with TRH micropipetted into spinal cords of normal amphibia (Nicoll, J. Pharmac. Exp. Therap. 1978; 207: 817-24; Phillis et al., Can. J. Physiol. Pharmacol. 1979; 57: 887-99 and rodents, White Abstr. Soc. Neurosci 1983, 9: 714, and in other animal studies. An inhibitory transmitter-like action seems likely to underlie both the rapid-onset autorefractory phenomenon and the possibly related clinical reduction of spasticity, spasms and cramps. A tachyphalaxis or desensitization phenomenon, perhaps similar to the clinical autorefractory state, has been noted in animal lower motor neurons with larger amounts of TRH micropipetted into the spinal cord (Nicoll and Phillis, et al., supra).

[7] = tested on: infant with infantile spinal muscular atrophy; set-up: species or system human; conditions: in vivo

NC(=O)[C@@H]1CCCN1C(=O)[C@H](Cc1cnc[nH]1)NC(=O)[C@@H]1CCC(=O)N1 [TRH, L-pyroglutamyl-L-histidyl-L-prolinamide]
effectiveness of low intravenous dose ([1]; 0.5 mg/minute for twenty minutes, Examples II and III): not found to be effective
dose at which shivering, tachypnoea and sweating began ([1]; human, in vivo, iv): 8 mg/min
transient increase in pulse rate ([1]; human, in vivo, iv): 10-15 beats per minute
dose at which movement and strength of legs, arms and tongue began to improve, with decreased spasticity ([1]; i.v. infusion increased in seven steps 0.5 to 19 mg/minute, two men): 2 to 4 mg/min
persistence of benefits and side effects after infusion ([1]; i.v. stepwise infusion): no longer obvious thirty minutes after the infusion ended
response of patient with no spasticity, only lower motor neuron weakness ([1]; i.v., 500 mg total dose): only slight subjective improvement in strength without obvious objective improvement
muscle strength ([2]; 1-8 mg/minute i.v., 500 mg total, several muscle functions): slight to moderate improvement of strength
sensitivity to TRH relative to the men ([2]; i.v.): one-fourth to one-eighth as sensitive
intravenous rate at which an acute increase in strength occurred ([2]; printed as Example IV (summary)): 4.7 mg/min
improvement in neurologic deficits from hypofunction of lower and upper motor neurons ([3]; ALS and other patients, therapeutic amounts (summary of all studies)): moderate to excellent improvement
muscle strength in retreated female non-responder of Example II ([3]; a few months later, evaluated in more detail): slight but definite improvement of muscle strength
effect on mood, alertness, excitation, appetite or sleep ([3]; human, in vivo): no noticeable effect
new side effects ([3]; human, in vivo): very transient taste noted within a few minutes; asthmatic phenomena lasting about five minutes during maximal shivering in two patients with a history of asthma
strength and head tremor in one patient with hereditary ALS ([3]; human, in vivo): improvement in strength and also improvement in a co-existing head tremor
transient shivering, onset and end ([3]; human, in vivo, sc): beginning at three to ten minutes and lasting until thirty to sixty minutes
neuromuscular stamina ([3]; s.c.): clearly increased
painful muscle cramps, spasms, spontaneous clonus and stiffness ([3]; s.c.): eliminated or lessened for several days in all patients having them
painful spontaneous flexor withdrawal reflexes ([3]; s.c.): remained eliminated for at least twelve days in some instances
swallowing ([3]; s.c.): increased, eliminating choking on food and saliva accumulation in the mouth
time benefits in strength, cramps, spasticity and clonus often endured undiminished ([3]; s.c.): twenty-four hours
time to maximal increased strength ([3]; s.c.): one-and-a-half to two minutes
improvement ([3]; s.c. 150 mg once daily or 75 mg twice daily (summary)): similarly striking improvement
response ([3]; s.c. 75-150 mg once daily or 75 mg twice daily, forty-one ALS patients, 461 days): beneficial responses
stair climbing ([3]; s.c., many patients): eleven flights of stairs (compared to two with difficulty before TRH)
aching of shoulder and hip joints ([3]; s.c., severe ALS): temporarily reduced or abolished for at least one to three days
recovery of lost abilities ([3]; s.c., some patients): regained abilities that had been lost for six to twelve months
spasticity, clonus and muscle cramps ([3]; s.c., when shivering diminished or one to three hours thereafter): improved from their before-treatment status or completely abolished or absent
subcutaneous dose required per body weight ([3]; single injection): ≥ 0.71 mg/kg of body weight
subcutaneous dose required ([3]; single injection once, or similar amount twice-a-day): at least 50 mg
partial autorefractory state, onset and duration ([4]; 125-150 mg s.c., first day): began by four to ten minutes and lasted, with fluctuations, two to three hours
time to increased strength ([4]; 125-150 mg s.c., first day, twenty ALS patients): within one to two minutes
effect of second dose at twenty-four hours ([4]; another 125-150 mg s.c.): marked weakness within two minutes
drug resistance on repeated treatment ([4]; i.v. or s.c., as long as eight months): no diminution of beneficial response attributable to drug resistance
cerebrospinal fluid TRH level [5]: ≤ 5368 pg/mL
enhancement of cholineactyltransferase [6]: 17 fold
safety and benefit on strength [7]: safety without side-effects and possible benefit on strength
